Assay results taken from US20260183274A1, “PDK1 REGULATORY COMPOUND AND COMPOSITION CONTAINING THE SAME” (PROVIBIO CO., LTD., priority 2024, published 2026).

Experiments:
[1] = system: Human B Lymphocyte cell line, SU-DHL-8; assay: Relative cell viability CCK-8, SU-DHL-8; format: cell-based; conditions: for viability at 1 µM / viability at 10 µM / viability at 30 µM / viability at 50 µM: Homo sapiens, SU-DHL-8, 48 h; for viability at 1 µM: read-out: Relative cell viability (%), SU-DHL-8, 1 μM; for viability at 10 µM: read-out: Relative cell viability (%), SU-DHL-8, 10 μM; for viability at 30 µM: read-out: Relative cell viability (%), SU-DHL-8, 30 μM; for viability at 50 µM: read-out: Relative cell viability (%), SU-DHL-8, 50 μM
Description: Human-derived B lymphoma cell line SU-DHL-8 (Cat. #CRL-2961) purchased from ATCC was cultured in RPMI-1640 medium containing 10% FBS, 100 U/mL penicillin, and 100 μg/mL streptomycin.
The cell culture medium was then harvested, centrifuged at 1,300 rpm for 5 minutes, and the supernatant was removed. The cells were resuspended in the same medium and dispensed into a 96-well plate (Costar 96-well cell culture plate, Corning) at 90 μL per well, resulting in the conditions specified in Table 5.
Then, 10 μL of CCK-8 was added to each well, and the plates were incubated again at 37° C. in a 5% CO2 incubator for 4 hours.
In other words, when the survival rate of untreated cells (DMSO) is set at 100%, the relative cell survival rate in each group treated with the drug at different concentrations is indicated.

[2] = system: T cells isolated from mouse spleens; assay: T cell proliferation inhibition (CFSE flow cytometry, anti-CD3/anti-CD28 stimulation); format: cell-based; conditions: mouse spleen T cells, 3 days; for inhibition at 0.01 µM / inhibition at 0.1 µM / inhibition at 1 µM / inhibition at 10 µM / inhibition at 30 µM / inhibition at 50 µM: Mus musculus, T-cell, 72 h, read-out: Proliferation inhibition rate (%)
Summary of the method: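 Splenic T cells from 7-week-old C57BL/6 mice were MACS-isolated, CFSE-labelled, seeded at 2×10^5 cells/well and activated with anti-CD3/anti-CD28 (0.5 μg/mL each). Compound at 10 nM–50 μM (six levels, triplicate) was present for 3 days at 37 °C before flow cytometric readout of proliferation inhibition rate.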

[3] = 48 hours, untreated (DMSO) = 100%
[4] = 1 μM, 48 hours, untreated (DMSO) = 100%
[5] = 10 μM, 48 hours, untreated (DMSO) = 100%
[6] = 30 μM, 48 hours, untreated (DMSO) = 100%
[7] = 50 μM, 48 hours, untreated (DMSO) = 100%

| Structure (SMILES) | viability at 1 µM [1, 3] [%] | viability at 10 µM [1, 3] [%] | viability at 30 µM [1, 3] [%] | viability at 50 µM [1, 3] [%] | inhibition at 0.01 µM ([2]; compound 10 nM) [%] | inhibition at 0.1 µM ([2]; compound 100 nM) [%] | inhibition at 1 µM ([2]; compound 1 μM) [%] | inhibition at 10 µM ([2]; compound 10 μM) [%] | inhibition at 30 µM ([2]; compound 30 μM) [%] | inhibition at 50 µM ([2]; compound 50 μM) [%] | Relative cell viability (%), SU-DHL-8 [1, 4] [%] | Relative cell viability (%), SU-DHL-8 [1, 5] [%] | Relative cell viability (%), SU-DHL-8 [1, 6] [%] | Proliferation inhibition rate (%) ([2]; compound 10 nM) | Proliferation inhibition rate (%) ([2]; compound 100 nM) | Proliferation inhibition rate (%) ([2]; compound 1 μM) | Proliferation inhibition rate (%) ([2]; compound 10 μM) | Proliferation inhibition rate (%) ([2]; compound 30 μM) | Proliferation inhibition rate (%) ([2]; compound 50 μM) | Relative cell viability (%), SU-DHL-8 [1, 7] [%] | also measured |
| --- | --- | --- | --- | --- | --- | --- | --- | --- | --- | --- | --- | --- | --- | --- | --- | --- | --- | --- | --- | --- | --- |
| COC1CCN(CCCCCCCCCCCCNC(=O)c2cccnc2N)C1 (centres unmarked) [Compound 32, 2-Amino-N-(12-(3-methoxypyrrolidin-1-yl)dodecyl) nicotinamide] | – | – | – | – | – | – | – | – | – | – | – | – | – | – | – | – | – | – | – | – | Relative cell viability (%), SU-DHL-8 ([1]; 1 μM, 48 hours, untreated (DMSO) = 100%, listed as PBK-2024-024, 1 µM): 3.48%; Relative cell viability (%), SU-DHL-8 ([1]; 10 μM, 48 hours, untreated (DMSO) = 100%, listed as PBK-2024-024, 10 µM): 3.01%; Relative cell viability (%), SU-DHL-8 ([1]; 30 μM, 48 hours, untreated (DMSO) = 100%, listed as PBK-2024-024, 30 µM): 1.97%; Relative cell viability (%), SU-DHL-8 ([1]; 50 μM, 48 hours, untreated (DMSO) = 100%, listed as PBK-2024-024, 50 µM): 1.45%; Proliferation inhibition rate (%) ([2]; compound 10 nM, listed as PBK-2024-024, 0.01 µM): 0.29% |
| CN(C)CCN1CCN(CCCCCCCCCCCCNC(=O)c2cccnc2N)CC1 [Compound 33, 2-Amino-N-(12-(4-(2-(dimethylamino)ethyl)piperazin-1-yl)dodecyl)nicotinamide] | 10.1 | 4.32 | 3.35 | 2.66 | -36 | 100 | 100 | 100 | 100 | 100 | – | – | – | – | – | – | – | – | – | – | – |
| CC1CNCCN1CCCCCCCCCCCCNC(=O)c1cccnc1N (centres unmarked) [Compound 35, 2-Amino-N-(12-(2-methylpiperazin-1-yl)dodecyl) nicotinamide] | – | – | – | – | – | – | – | – | – | – | 1.18 | 0.64 | 0.42 | 8.33 | 100.00 | 100.00 | 100.00 | 100.00 | 100.00 | – | – |
| C[C@H]1CNCCN1CCCCCCCCCCCCNC(=O)c1cccnc1N.Cl [Compound 37, (S)-2-Amino-N-(12-(2-methylpiperazin-1-yl)dodecyl) nicotinamide hydrochloride] | – | – | – | – | – | – | – | – | – | – | 6.38 | 4.45 | 3.17 | −4.14 | 33.33 | 100.00 | 100.00 | 100.00 | 100.00 | 2.32 | – |
| Nc1ncccc1C(=O)NCCCCCCCCCCCCN1CCC(Oc2ccncc2)CC1 [Compound 38, 2-Amino-N-(12-(4-(pyridin-4-yloxy)piperidin-1-yl)dodecyl) nicotinamide] | – | – | – | – | – | – | – | – | – | – | 4.16 | 3.30 | 1.79 | −33.51 | 100.00 | 100.00 | 100.00 | 100.00 | 100.00 | 1.42 | – |
| CC1CCCN(CCCCCCCCCCCCNC(=O)c2cccnc2N)CC1 (centres unmarked) [Compound 39, 2-Amino-N-(12-(4-methylazepan-1-yl)dodecyl) nicotinamide] | – | – | – | – | – | – | – | – | – | – | 11.48 | 8.41 | 6.24 | −58.92 | 100.00 | 100.00 | 100.00 | 100.00 | 100.00 | 4.27 | – |
| CC1CN(C)C(CCCCCCCCCCCCNc2ccc3cncnc3n2)N1 (centres unmarked) [Compound 43] | – | – | – | – | – | – | – | – | – | – | 22.61 | 11.93 | 2.34 | −10.80 | 100.00 | 100.00 | 100.00 | 100.00 | 100.00 | 1.58 | – |
| Nc1ncccc1C(=O)NCCCCCCCCCCCCN1CC2CCCC2C1 (centres unmarked) [Compound 46, 2-Amino-N-(12-(hexahydrocyclopenta[c]pyrrol-2 (1H)-yl)dodecyl)nicotinamide] | 4.8 | 2.44 | 2.08 | – | -10.5 | 100 | 100 | 100 | 100 | 100 | – | – | – | – | – | – | – | – | – | – | Relative cell viability (%), SU-DHL-8 ([1]; human, 48 h, 50 µM): −0.92% |
| Cc1ccc(C2CCN(CCCCCCCCCCCCNC(=O)c3cccnc3N)CC2)cc1 [Compound 55, 2-Amino-N-(12-(4-(p-tolyl)piperidin-1-yl)dodecyl) nicotinamide] | – | – | – | – | – | – | – | – | – | – | 9.36 | 4.92 | 1.10 | 89.67 | 100.00 | 100.00 | 100.00 | 100.00 | 100.00 | 0.97 | – |
| Cc1nnc(C)n1CCCCCCCCCCCCNC(=O)c1cccnc1N [Compound 56, 2-Amino-N-(12-(3,5-dimethyl-4H-1,2,4-triazol-4-yl)dodecyl)nicotinamide] | 32.4 | 19.6 | 11.2 | 0 | -2.51 | 2.91 | 81.1 | 100 | 100 | 100 | – | – | – | – | – | – | – | – | – | – | – |
| Nc1ncccc1C(=O)NCCCCCCCCF [Compound 61, 2-Amino-N-(8-fluoro-octyl)-nicotinamide] | 48.8 | 36.4 | 42 | 21 | -10.2 | -6.37 | -5.75 | 34.9 | 85.4 | 93.2 | – | – | – | – | – | – | – | – | – | – | – |
| O=C(NCCCCCCCCCCCCF)c1cccnc1S [Compound 62, N-(12-fluoro-dodecyl)-2-mercapto-nicotinamide] | 32.5 | 24.9 | 22.9 | 19.3 | 0 | 0 | 0 | -18.5 | 100 | 100 | – | – | – | – | – | – | – | – | – | – | – |
| Nc1ncccc1C(=O)NCCCCCCCCCCN1CCOCC1 [Compound 63, 2-Amino-N-(10-morpholin-4-yl-decyl)-nicotinamide] | 33 | 29.8 | 29.1 | 27.9 | -9.84 | 4.85 | 11.2 | 100 | 100 | 100 | – | – | – | – | – | – | – | – | – | – | – |
| O=C(NCCCCCCCCCCCCF)c1ncccc1O [Compound 64, 3-Hydroxy-pyridine-2-carboxylic acid (12-fluoro-dodecyl)-amide] | 23.3 | 14.1 | 6.51 | 6.33 | -4.11 | 8.63 | 6.99 | 8.94 | 80.4 | 97 | – | – | – | – | – | – | – | – | – | – | – |
